The results in this text go back to patent publication US6861431B2, “Compounds capable of modulating the activity of multidrug transporters and therapeutic use of the same” (The Board of Trustees of the University of Illinois, priority 2001, dated 2005).

Like-named read-outs stand apart in the source and are kept apart here. Starred links: 1 amine or outer side, 2 acyl side, 3 side chain; linkers in the order of their positions; H or OH if unused. Positions of bridges follow the written chain, without caps; N, C: chain ends. Non-standard residues stand in square brackets, D forms with d. Residues, ends and D or L forms follow the SMILES beside them. Chains are numbered I, II in the order given. Actinocin(9to1) = Cc1c2oc3c(C)ccc(C(=O)[*:1])c3nc-2c(C(=O)[*:2])c(N)c1=O; NMeV = CN[C@H](C(=O)O)C(C)C; Sar = CNCC(=O)O

Data set [1] relates to ConA cells. Description: Drug sensitivity (growth inhibition) assay, ConA cells. The format is cell-based, mouse. Conditions: for Change in sensitivity (x-fold): Compound 102 (10 μM), fold resistance; for Effect of Compound 102 on drug sensitivity of cell lines: ConA (Balb 3T3): P-gp-positive ConA cells, label = drug. Here is the method:
Drug sensitivity assays. To estimate drug-mediated growth inhibition, 10^3 cells were plated per well of 96-well plates, and incubated with a range of concentrations of drugs added 24 hours after plating. […] After elution by 1% SDS solution, optical density was determined on a Multiscan Ascent reader (Lybsystems, Helsinki, Finland) at 650 nm.

Data set [2] has as its system P-gp. Here is the method:
Drug sensitivity assays. To estimate drug-mediated growth inhibition, 10^3 cells were plated per well of 96-well plates, and incubated with a range of concentrations of drugs added 24 hours after plating. After 5 to […] of drug treatment, plates were fixed and stained using 2% methylene blue solution in 50% methanol. After elution by 1% SDS solution, optical density was determined on a Multiscan Ascent reader (Lybsystems, Helsinki, Finland) at 650 nm.
(§1) Drug accumulation and efflux assay. […] For drug efflux assay, cells after drug incubation were washed thoroughly with PBS, incubated in a drug-free media with or without compounds from the chemical library, and harvested at different time points for flow cytometric analysis (18).

In data set [3] the test system is P-gp. Description: Rho123 accumulation in ConA cells. The data set is classed as cell-based, mouse. Details: effect on Rho123 efflux/accumulation: dose or concentration left out as unconfirmed. Conditions: two hours with Rho123, flow cytometry (FIG. 8). The procedure: Screening of a chemical library. Murine fibroblastoid cell line (ConA) was selected as the readout system for screening a chemical library for P-gp activators. […] Rho123, a classic fluorescent P-gp substrate that is detected easily using multichannel fluorimeter in living cells, was used as an efflux indicator. […] Primary screening was performed on ConA cells for compounds that interfere with Adr-induced activation of p53-responsive reporter LacZ gene as previously described (11). To identify P-gp modulators, all “hits” isolated after primary screening were tested for their ability to modulate cellular accumulation of Rho123. Con A cells grown in 96-well plates were incubated 4 hours with 0.5 μM Rho123 in combination with individual library compounds (2 μg/ml (2-5 μM)), and cell fluorescence was analyzed using fluorescent microscopy.
as §1
(§2) ConA cells were incubated two hours with Rho123 ([…]) or daunorubicin (500 ng/ml) in the presence of the identified compounds, and accumulation of the drugs was quantitated by flow cytometry.

The test system of data set [4] is P-gp. Description: Daunorubicin accumulation in ConA cells. The data set is classed as cell-based, mouse. Conditions: for effect on daunorubicin accumulation: ConA cells, two hours with daunorubicin (500 ng/ml), flow cytometry (FIG. 8). The procedure:
Drug accumulation and efflux assay. […] For drug efflux assay, cells after drug incubation were washed thoroughly with PBS, incubated in a drug-free media with or without compounds from the chemical library, and harvested at different time points for flow cytometric analysis (18). […]
as §2

The mark [5] stands for this setting: label = P-gp substrate drug, three groups.

For the compound `Cc1c2oc3c(C)ccc(C(=O)N[C@@H]4C(=O)N[C@H](C(C)C)C(=O)N5CCC[C@H]5C(=O)N(C)CC(=O)N(C)[C@@H](C(C)C)C(=O)O[C@@H]4C)c3nc-2c(C(=O)N[C@@H]2C(=O)N[C@H](C(C)C)C(=O)N3CCC[C@H]3C(=O)N(C)CC(=O)N(C)[C@@H](C(C)C)C(=O)O[C@@H]2C)c(N)c1=O` [Actinomycin D, actinomycin D] (I: T[dV]P[Sar][NMeV] / II: T[dV]P[Sar][NMeV]; ester I:1-I:C, II:1-II:C; linker I:N-II:N via Actinocin(9to1)), in data set [1] (ConA cells), the “Change in sensitivity (x-fold)” value was 1 x-fold. The same compound gave an LD50 in data set [1] (ConA cells, drug alone) of 20 ng/mL. Moreover, the LD50 comp in data set [1] (ConA cells, drug in the presence of Compound 102 (10 μM)) was found to be 20 ng/mL. In addition, in data set [2], the “cytotoxicity of the drug in the presence of Compound 102” value (shortened to “cytotoxicity of the drug”) is “do not change their cytotoxicity”.

With `CN[C@H]1CCc2cc(OC)c(OC)c(OC)c2-c2ccc(OC)c(=O)cc21` [Colcemide, colcemid], in data set [2] (setting [5]), the “cytotoxicity of the drug” value is “do not change their cytotoxicity”.

For `COc1cc2c(c(OC)c1OC)-c1ccc(OC)c(=O)cc1[C@@H](NC(C)=O)CC2` [Colchicine, colchicine], the “Effect of Compound 102 on drug sensitivity of cell lines: ConA (Balb 3T3)” value (“Effect … (Balb 3T3)” for short) in data set [1] is “S”.

Regarding `Cc1cc(C)n(CC(O)Cn2c3ccccc3c3ccccc32)n1` (centres unmarked) [Compound 2, 1-Carbazol-9-yl-3-(3,5-dimethyl-pyrazol-1-yl)-propan-2-ol], the “effect on Rho123 efflux/accumulation” value in data set [3] is given as “relatively effective”. For the same compound, the “effect on daunorubicin accumulation” value in data set [4] is on record as “weak influence”.

Take `Cc1cc(OCC(=O)Nc2ccc3nn(-c4ccccc4)nc3c2)cc(C)c1Cl` [Compound 7, 2-(4-Chloro-3,5-dimethyl-phenoxy)-N-(2-phenyl-2H-benzotriazol-5-yl)-acetamide]: the “effect on Rho123 efflux/accumulation” value in data set [3] is reported as “relatively effective”. The “effect on daunorubicin accumulation” value in data set [4] was “weak influence”.

Turning to `Cc1ccc2c(C)nc(N/C(N)=N/C(=O)Cc3ccc(Cl)cc3)nc2c1` [Compound 8, N-[2-(4-Chloro-phenyl)-acetyl]-N′-(4,7-dimethyl-quinazolin-2-yl)-guanidine], in data set [3], the “effect on Rho123 efflux/accumulation” value is “relatively effective”. For the same compound, the “effect on daunorubicin accumulation” value in data set [4] is “weak influence”.

For the compound `COc1cc2cnc3c(c(Cc4ccccc4)nn3-c3ccccc3)c2cc1OC` [Compound 9, 1-Benzyl-7,8-dimethoxy-3-phenyl-3H-pyrazolo[3,4-c]isoquinoline], the “effect on Rho123 efflux/accumulation” value in data set [3] is “relatively effective”. Further, the “effect on daunorubicin accumulation” value in data set [4] is reported as “weak influence”.

Regarding `Cc1ccc(OCC(=O)Nc2ccc(O)c(-c3nc4ccccc4o3)c2)cc1` [Compound 10, N-(3-Benzooxazol-2-yl-4-hydroxy-phenyl)-2-p-tolyloxy-acetamide], the “effect on Rho123 efflux/accumulation” value in data set [3] is recorded as “relatively effective”. For the same compound, in data set [4], the “effect on daunorubicin accumulation” value is “weak influence”.

Regarding `COc1ccccc1-c1nc(Cc2ccc(Cl)cc2)no1` [Compound 12, 3-(4-Chloro-benzyl)-5-(2-methoxy-phenyl)-[1,2,4]oxadiazole], the “stimulation of P-gp-mediated efflux of daunorubicin relative to Rho123” value in data set [4] (ConA cells (FIG. 8)) was “more effective”.

On to `CCOC(=O)Cn1c2ccccc2c2nc3cc4ccccc4cc3nc21` [Compound 14, (5,12,13-Triaza-indeno[1,2-b]anthracen-13-yl)-acetic acid ethyl ester], for which the “effect on daunorubicin accumulation” value in data set [4] is “no effect”.

Regarding `Oc1ccccc1-c1nc(-c2ccccc2O)n(-c2ccccc2)n1` [Compound 15, 2,2′-(1-phenyl-1H-1,2,4-triazole-3,5-diyl)bis-phenol], the “effect on Rho123 efflux/accumulation” value in data set [3] is on record as “relatively effective”. Besides, in data set [4], the “effect on daunorubicin accumulation” value is reported as “weak influence”.

Take `COc1cccc2c1C(=O)c1c(O)c3c(c(O)c1C2=O)C[C@@](O)(C(C)=O)C[C@@H]3O[C@H]1C[C@H](N)[C@H](O)[C@H](C)O1` [Daunorubicin, daunorubicin]: the “Change in sensitivity (x-fold)” value in data set [1] (ConA cells) worked out at 2.5 x-fold. In data set [1], the “Effect … (Balb 3T3)” value is listed as “R”. Moreover, the “cytotoxicity of the drug” value in data set [2] is recorded as “less toxic”.

Turning to `COc1cc([C@@H]2c3cc4c(cc3[C@@H](O[C@@H]3O[C@@H]5CO[C@@H](C)O[C@H]5[C@H](O)[C@H]3O)[C@H]3COC(=O)[C@H]23)OCO4)cc(OC)c1O` [Etoposide, etoposide], the “Change in sensitivity (x-fold)” value in data set [1] (ConA cells) turned out to be 1.5 x-fold. Moreover, the “Effect … (Balb 3T3)” value in data set [1] is listed as “Minor R”. The “cytotoxicity of the drug” value in data set [2] is given as “less toxic”.

As to `CCOc1ccc(-c2nc3ccc(-c4nc5ccc(N6CCN(C)CC6)cc5[nH]4)cc3[nH]2)cc1` [Hoechst 33342], in data set [1], the “Effect … (Balb 3T3)” value is given as “S?”. Also, in data set [2] (setting [5]), the “cytotoxicity of the drug” value was “more potent”.

For `COc1ccc(C[C@H](N)C(=O)N[C@H]2[C@@H](O)[C@H](n3cnc4c(N(C)C)ncnc43)O[C@@H]2CO)cc1` [Puromycin, puromycin], in data set [1] (ConA cells), the “Change in sensitivity (x-fold)” value amounted to 1 x-fold. In addition, the “cytotoxicity of the drug” value in data set [2] is reported as “do not change their cytotoxicity”.

As for `CC(=O)O[C@H]1C(=O)[C@@]2(C)[C@H]([C@H](OC(=O)c3ccccc3)[C@]3(O)C[C@H](OC(=O)[C@H](O)[C@@H](NC(=O)c4ccccc4)c4ccccc4)C(C)=C1C3(C)C)[C@]1(OC(C)=O)CO[C@@H]1C[C@@H]2O` [Taxol, taxol], the “Change in sensitivity (x-fold)” value in data set [1] (ConA cells) amounted to 0.3 x-fold. In data set [1], the “Effect … (Balb 3T3)” value is reported as “S”. Also, the “cytotoxicity of the drug” value in data set [2] is reported as “more potent”.

`CC[C@]1(O)C[C@@H]2CN(CCc3c([nH]c4ccccc34)[C@@](C(=O)OC)(c3cc4c(cc3OC)N(C)[C@H]3[C@@](O)(C(=O)OC)[C@H](OC(C)=O)[C@]5(CC)C=CCN6CC[C@]43[C@@H]65)C2)C1` [Vinblastine, vinblastine]: in data set [1] (ConA cells), the “Change in sensitivity (x-fold)” value is 0.5 x-fold. The “Effect … (Balb 3T3)” value in data set [1] is on record as “S”. For the same compound, the “cytotoxicity of the drug” value in data set [2] was “more potent”.

For the compound `CC[C@]1(O)C[C@H]2CN(CCc3c([nH]c4ccccc34)[C@@](C(=O)OC)(c3cc4c(cc3OC)N(C=O)[C@H]3[C@@](O)(C(=O)OC)[C@H](OC(C)=O)[C@]5(CC)C=CCN6CC[C@]43[C@@H]65)C2)C1` [Vincristine, vincristine], the “Change in sensitivity (x-fold)” value in data set [1] (ConA cells) is on record as 0.5 x-fold. Moreover, the “Effect … (Balb 3T3)” value in data set [1] is given as “S”. In data set [2], the “cytotoxicity of the drug” value is listed as “more potent”.

As for `C=C1[C@@H](C)[C@H]2[C@H](Cc3ccccc3)NC(=O)[C@]23[C@H](OC(C)=O)/C=C/[C@@](C)(O)C(=O)[C@@H](C)C/C=C/[C@H]3[C@@H]1O` [cytochalasin D], the “cytotoxicity of the drug” value in data set [2] (setting [5]) is “do not change their cytotoxicity”.

As to Rhodamine 123, the “Effect … (Balb 3T3)” value in data set [1] is recorded as “R”. Moreover, the “cytotoxicity of the drug” value in data set [2] is listed as “less toxic”.

Take gramicidin D [Gramicidine D]: the “Effect … (Balb 3T3)” value in data set [1] is “S”. The “cytotoxicity of the drug” value in data set [2] (setting [5]) is “more potent”.
